d = 2'-deoxy (DNA); r = 2'-OH (RNA)
Key:
[1] = system: human ex vivo living colorectal cancer tissue; assay: Human ex vivo living tumor tissue culture, TECIA/MTT inhibition rate; assay type: cell-based; settings: M1 virus 10^7 PFU, 5-Fu 10 mg/L, 96 hours
Description: (§1) The ex vivo living tissue was obtained by surgical excision in Tumor Prevention Center of Sun Yat-sen University, stored at 4 □, and then sent to the laboratory within four hours for drug sensitivity test. All the cases were confirmed by a histopathology examination. Under sterile condition, the tumor tissue was taken out, and cut into tissue pieces with a diameter of 0.5-1 mm, placed onto a 24-well culture plate (4-6 pieces per well), and 1 ml DMEM medium was added into each well. After one hour of culture, a projection illuminated image of the tumor tissue piece was taken by an image analyzer specialized for drug sensitivity test.
(§2) The tumor tissue was cultured in a CO2 cell incubator for 12 hours. […] After 96 hours of the infection treatment, MTT (5 mg/ml) was added at 50 μl/well, and cultured for 3 hours. A diffusion light illuminated image of the tumor tissue piece was then taken by an image analyzer specialized for drug sensitivity test, to determine the blue dyed area by formazan in the tumor piece in each well and the coloring degree (blue area, BA). Then the tissue survival rate (survival fraction, SF) was calculated according the following formula: […]

[2] = system: human ex vivo living liver cancer tissues; assay: as above; assay type: cell-based; settings: M1 virus 10^7 PFU, 5-Fu 10 mg/L, 96 hours
Description: as §1, §2

ZAP = ZAP protein expression after ZAP RNA interference fragment (Western blot); assay type: cell-based, human
Description: The cells in the exponential growth phase were selected, and added into a DMEM complete medium (10% fetal bovine serum, 1% double antibody) to prepare a cell suspension, and the cells were inoculated into a 6-well plate at a density of 1×10^5/well. After 24 hours, Si RNA fragment wrapped with RNAiMAX was added. […] After 48 hours of the infection, the specimens were treated.

Row | Compound | number of cases with inhibition rate (% control) >10% [1] | number of cases with inhibition rate (% control) ≤10% [1] | ratio of cases with inhibition rate (% control) >10% [1] [%] | ratio of cases with inhibition rate (% control) ≤10% [1] [%] | number of cases with inhibition rate (% control) >10% [2] | number of cases with inhibition rate (% control) ≤10% [2] | ratio of cases with inhibition rate (% control) >10% [2] [%] | ratio of cases with inhibition rate (% control) ≤10% [2] [%] | ZAP protein expression quantity (ZAP; HCT116) | ZAP protein expression quantity (ZAP; L-02) | ZAP protein expression quantity (ZAP; PLC)
1 | O=c1[nH]cc(F)c(=O)[nH]1 [5-Fu, 5-fluorouracil] | 8 | 5 | 61.5 | 38.5 | 14 | 12 | 53.8 | 46.2 |  |  | 
2 | ZAP RNA interference fragment: ZAP interference fragment (Si RNA), sense strand SEQ ID No. 8, antisense strand SEQ ID No. 9 (sense CCAAGAGUAGCACUUGUUATT; antisense UAACAAGUGCUACUCUUGGTT; sugars from the 5' end r19 d2, backbone not given here) |  |  |  |  |  |  |  |  | undetectable level | undetectable level | undetectable level
